From patent publication US6737383B1, “Herbicidal oxadiazolidines” (priority 1999, dated 2004)

Key:
[1] = system: rape; assay: Test B pre/postemergence rape; type: in vivo, Brassica napus
Summary of the method: (§1)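 Test chemicals in a non-phytotoxic solvent mixture with surfactant were sprayed preemergence onto planted seeds and postemergence onto plants 2 to 18 cm tall (1- to 4-leaf stage). After twelve to sixteen days in a greenhouse, injury was visually rated against untreated controls from 0 (no effect) to 10 (complete control).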

[2] = system: morningglory; assay: Test B pre/postemergence morningglory; type: in vivo, Ipomoea hederacea
Summary of the method: as §1

[3] = system: corn; assay: Test B pre/postemergence corn; type: in vivo, Zea mays
Summary of the method: as §1

[4] = system: bamyardgrass; assay: Test B flood test barnyardgrass; type: in vivo, Echinochloa crus-galli
Summary of the method: (§2)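 Plants were grown to the 2-leaf stage before treatment with test chemical, then held in a greenhouse for twelve to sixteen days. Injury was visually rated against untreated controls on a 0–10 scale, where 0 is no effect and 10 is complete control.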

[5] = system: rice; assay: Test B flood test rice; type: in vivo, Oryza sativa
Summary of the method: as §2

[6] = system: giant foxtail; assay: Test B pre/postemergence giant foxtail; type: in vivo, Setaria faberii
Summary of the method: as §1

[7] = system: bedstraw; assay: Test B pre/postemergence bedstraw; type: in vivo, Galium aparine
Summary of the method: as §1

[8] = system: purple nutsedge; assay: Test B pre/postemergence purple nutsedge; type: in vivo, Cyperus rotundus
Summary of the method: as §1

[9] = system: pigweed; assay: Test B pre/postemergence pigweed; type: in vivo, Amaranthus retroflexus
Summary of the method: as §1

[10] = system: cocklebur; assay: Test B pre/postemergence cocklebur; type: in vivo, Xanthium strumarium
Summary of the method: as §1

[11] = system: sugar beet; assay: Test B pre/postemergence sugar beet; type: in vivo, Beta vulgaris
Summary of the method: as §1

[12] = system: duck salad; assay: Test B flood test duck salad; type: in vivo, Heteranthera limosa
Summary of the method: as §2

[13] = system: surinam grass; assay: Test B pre/postemergence surinam grass; type: in vivo, Brachiaria decumbens
Summary of the method: as §1

[14] = system: blackgrass; assay: Test B pre/postemergence blackgrass; type: in vivo, Alopecurus myosuroides
Summary of the method: as §1

[15] = system: velvetleaf; assay: Test B pre/postemergence velvetleaf; type: in vivo, Abutilon theophrasti
Summary of the method: as §1

[16] = Postemergence, Rate 250 g/ha, scale 0 to 10
[17] = Postemergence, Rate 500 g/ha, scale of 0 to 10 where 0 is no effect and 10 is complete control
[18] = Preemergence, Rate 62 g/ha, scale of 0 to 10 where 0 is no effect and 10 is complete control
[19] = Preemergence, Rate 125 g/ha, scale of 0 to 10 where 0 is no effect and 10 is complete control
[20] = Preemergence, Rate 250 g/ha, scale 0 to 10, 0 is no effect, 10 is complete control
[21] = Preemergence, Rate 500 g/ha, scale 0 to 10, 0 is no effect, 10 is complete control
[22] = Rate 62 g/ha, Postemergence, scale 0 to 10 (0 no effect, 10 complete control)
[23] = Rate 125 g/ha, Postemergence, scale 0 to 10, 0 is no effect, 10 is complete control
[24] = Rate 62 g/ha, flood test species, Pre-emergence, visual evaluation after twelve to sixteen days
[25] = Rate 125 g/ha, under heading Pre-emergence, flood test species, visual evaluation after twelve to sixteen days
[26] = Rate 250 g/ha, Pre-emergence (flood test species), scale 0 to 10, 0 is no effect, 10 is complete control
[27] = Rate 500 g/ha, Pre-emergence, flood test species, scale 0 to 10 (0 no effect, 10 complete control)

CC(C)N(C(=O)n1oc(=O)n(C(C)Cl)c1=O)c1ccccc1 (stereo not shown) [Compound 438]
Rape plant response rating [1, 16]: 0
Rape plant response rating [1, 17]: 0
Plant response rating, Rape [1, 18]: 0
Plant response rating, Rape [1, 19]: 0
Rape plant response rating [1, 20]: 0
Rape plant response rating [1, 21]: 2
Rape plant response rating [1, 22]: 0
Rape plant response rating [1, 23]: 0
Morningglory plant response rating [2, 16]: 9
Morningglory plant response rating [2, 17]: 10
Plant response rating, Morningglory [2, 18]: 0
Plant response rating, Morningglory [2, 19]: 0
Morningglory plant response rating [2, 20]: 0
Morningglory plant response rating [2, 21]: 2
Morningglory plant response rating [2, 22]: 4
Morningglory plant response rating [2, 23]: 8
Corn plant response rating [3, 16]: 0
Corn plant response rating [3, 17]: 3
Plant response rating, Corn [3, 18]: 0
Plant response rating, Corn [3, 19]: 0
Corn plant response rating [3, 20]: 0
Corn plant response rating [3, 21]: 0
Corn plant response rating [3, 22]: 0
Corn plant response rating [3, 23]: 0
Plant response rating, Barnyardgrass (0 to 10 scale, 0 is no effect, 10 is complete control) [4, 24]: 0
Barnyardgrass plant response rating (0 to 10 scale, 0 is no effect, 10 is complete control) [4, 25]: 0
Barnyardgrass plant response rating [4, 26]: 0
Barnyardgrass plant response rating [4, 27]: 0
Plant response rating, Rice (0 to 10 scale, 0 is no effect, 10 is complete control) [5, 24]: 0
Rice plant response rating (0 to 10 scale, 0 is no effect, 10 is complete control) [5, 25]: 0
Rice plant response rating [5, 26]: 0
Rice plant response rating [5, 27]: 0
Giant foxtail plant response rating [6, 16]: 9
Giant foxtail plant response rating [6, 17]: 9
Plant response rating, Giant foxtail [6, 18]: 2
Plant response rating, Giant foxtail [6, 19]: 7
Giant foxtail plant response rating [6, 20]: 10
Giant foxtail plant response rating [6, 21]: 10
Giant foxtail plant response rating [6, 22]: 5
Giant foxtail plant response rating [6, 23]: 5
Bedstraw plant response rating [7, 16]: 0
Bedstraw plant response rating [7, 20]: 0
Bedstraw plant response rating [7, 22]: 0
Bedstraw plant response rating [7, 23]: 0
Nutsedge plant response rating [8, 16]: 0
Nutsedge plant response rating [8, 17]: 0
Plant response rating, Nutsedge [8, 18]: 0
Plant response rating, Nutsedge [8, 19]: 0
Nutsedge plant response rating [8, 20]: 0
Nutsedge plant response rating [8, 22]: 0
Nutsedge plant response rating [8, 23]: 0
Redroot pigweed plant response rating [9, 16]: 0
Redroot pigweed plant response rating [9, 17]: 0
Plant response rating, Redroot pigweed [9, 18]: 2
Plant response rating, Redroot pigweed [9, 19]: 2
Redroot pigweed plant response rating [9, 20]: 5
Redroot pigweed plant response rating [9, 21]: 10
Redroot pigweed plant response rating [9, 22]: 0
Redroot pigweed plant response rating [9, 23]: 0
Cocklebur plant response rating [10, 16]: 3
Cocklebur plant response rating [10, 17]: 3
Plant response rating, Cocklebur [10, 18]: 0
Plant response rating, Cocklebur [10, 19]: 0
Cocklebur plant response rating [10, 20]: 0
Cocklebur plant response rating [10, 21]: 0
Cocklebur plant response rating [10, 22]: 0
Cocklebur plant response rating [10, 23]: 0
Sugarbeets plant response rating [11, 16]: 0
Sugarbeets plant response rating [11, 17]: 0
Plant response rating, Sugarbeets [11, 18]: 0
Plant response rating, Sugarbeets [11, 19]: 0
Sugarbeets plant response rating [11, 20]: 0
Sugarbeets plant response rating [11, 21]: 0
Sugarbeets plant response rating [11, 22]: 0
Sugarbeets plant response rating [11, 23]: 0
Plant response rating, Ducksalad (0 to 10 scale, 0 is no effect, 10 is complete control) [12, 24]: 0
Ducksalad plant response rating (0 to 10 scale, 0 is no effect, 10 is complete control) [12, 25]: 0
Ducksalad plant response rating [12, 26]: 0
Ducksalad plant response rating [12, 27]: 0
B. signalgrass plant response rating ([13]; Postemergence, Rate 250 g/ha, scale 0 to 10, 0 no effect, 10 complete control): 0
B. signalgrass plant response rating [13, 17]: 0
Plant response rating, B. signalgrass [13, 18]: 0
Plant response rating, B. signalgrass [13, 19]: 0
B. signalgrass plant response rating [13, 20]: 0
B. signalgrass plant response rating [13, 21]: 2
B. signalgrass plant response rating [13, 22]: 0
B. signalgrass plant response rating [13, 23]: 0
Blackgrass plant response rating [14, 16]: 2
Blackgrass plant response rating [14, 17]: 2
Plant response rating, Blackgrass [14, 18]: 0
Plant response rating, Blackgrass [14, 19]: 0
Blackgrass plant response rating [14, 20]: 2
Blackgrass plant response rating [14, 21]: 3
Blackgrass plant response rating [14, 22]: 0
Blackgrass plant response rating [14, 23]: 0
Velvetleaf plant response rating [15, 16]: 0
Velvetleaf plant response rating [15, 17]: 0
Plant response rating, Velvetleaf [15, 18]: 0
Plant response rating, Velvetleaf [15, 19]: 0
Velvetleaf plant response rating [15, 20]: 5
Velvetleaf plant response rating [15, 21]: 6
Velvetleaf plant response rating [15, 22]: 0
Velvetleaf plant response rating [15, 23]: 0
